This passage reports Activity and LD99 results from ChEMBL document CHEMBL1142107, “The effect of halide salts on the production of Gymnoascus reessii polyenylpyrroles” (J Nat Prod, 2007).

Data set [1] can be described thus: Cytotoxicity against NS1 cell line up to 15 uM. The data set is classed as cell-based. The following applies: mouse.
Data set [2] can be described thus: Cytotoxicity against NS1 cell line. The class given is cell-based. Particulars: mouse; call rule not given here.

For the molecule `COc1cc(/C(C)=C/C=C/C=C/C=C/c2ccc[nH]2)oc(=O)c1C`, the Activity entry in data set [1] is reported as “Not Active”.
`COc1cc(/C(C)=C/C=C/C=C/C=C/c2[nH]ccc2Br)oc(=O)c1C` displayed an LD99 in data set [2] of 1.9 µM.
Turning to `COc1cc(/C(C)=C/C=C/C=C/C=C/c2[nH]ccc2Cl)oc(=O)c1C`, the LD99 in data set [2] came out at 0.034 µM.
